Here are results for 3 sequences from US20020085997A1, “TUMOUR VACCINE AND PROCESS FOR THE PREPARATION THEREOF” (priority 1995, published 2002).

The subject of assay [1] is CT-26 cells. The assay can be described thus: Protection of Balb/c mice by pre-immunisation with vaccine of foreign peptide-charged CT-26 colon carcinoma cells (prophylactic mouse model). Conditions: for animals protected: vaccinated twice s.c. 10^5 cells/mouse. Type of assay: in vivo.
Assay [2] relates to M-3 melanoma metastases. The assay can be described thus: Curing of DBA/2 mice having M-3 melanoma metastases with vaccine of foreign peptide-charged melanoma cells (therapeutic mouse model). Type of assay: in vivo.
The subject of assay [3] is M-3 cells. Briefly: Comparative FACS analysis of M-3 cells treated with FITC-labelled foreign peptide by various methods. Type of assay: cell-based, murine.
For assay [4], the system named is highly tumorigenic variant of the M-3 cells. It counts as in vivo, mice. Conditions: cells charged with peptide by means of TfpL/DNA complexes.

Regarding “FFIGALEEI [Phe Phe Ile Gly Ala Leu Glu Glu Ile, synthetic peptide not hitherto found in nature, designed as ligand for MHC-I molecule of type H2-Kd]”, the “suitability of the peptide for producing an anti-tumour immunity” value in assay [1] (murine colon carcinoma CT-26, Balb/c) is listed as “confirmed”. Further, the animals protected in assay [1] is 4 out of 8.
Turning to “LFEAIEGFI [Leu Phe Glu Ala Ile Glu Gly Phe Ile, viral peptide derived from the influenza virus haemagglutinin, H2-K^d-ligand, used as foreign peptide to charge tumour cells]”, the animals cured in assay [2] (160 μg peptide charged onto M-3 cells by TfpL/DNA complexes, 5 day metastasis, 10^5 irradiated cells/animal s.c. twice) was 7 out of 8; in assay [2] (complexes containing 0.5 μg of peptide, five-day metastasis) it was 2 out of 8; in assay [2] (vaccine of cells treated with 4 mg peptide by incubation (pulsing, 3 hours 37° C.)), 1 out of 8. Moreover, the “degree of systemic immune response of the tumour vaccine” value in assay [2] (adjuvant mixing of the peptide with the irradiated vaccines) was “inefficient”; in assay [2] (peptide administered to the cells by polylysine/transferrin, compared with incubation with peptide for 24 hours (pulsing)) it was “significantly more marked”. Also, the mice cured in assay [2] (complexes containing 5 μg of peptide, five-day metastasis) was 4 out of 8; in assay [2] (complexes containing 50 μg of peptide, five-day metastasis), 6 out of 8. In assay [2] (mice with metastases vaccinated with xenopeptised irradiated M-3 cells (TfpL and empty vector)), the “mice able to eliminate the metastases” value is recorded as 87.5%. Further, in assay [2] (vaccine with 400 μg peptide applied by incubation (pulsing, 3 hours 37° C.)), the “animals remained free from tumours” value is 3 out of the 8. In addition, the “vaccinated mice able to eliminate a tumour challenge” value in assay [1] (irradiated CT-26 vaccine alienised with peptide complexed with TfpL or pL) is given as 75%. For the same sequence, the animals protected in assay [1] is 6 out of 8. Besides, the “peptide binding to cells after washing step” value in assay [3] (adjuvant mixing: 100 μg FITC-labelled peptide, 30 minutes ambient temperature, 10^6 M-3 cells) is on record as “at most negligible”. In addition, the “detection of cell-bound FITC peptide by fluorescent microscopy” value in assay [3] (pulsing, cytocentrifuged M-3 cells) is recorded as “practically undetectable”. In addition, the shift in fluorescence result in assay [3] (pulsing: incubation with 450 μg FITC peptide, 3 hours 37° C., M-3 cells) is reported as “one power of ten”. The “shift in fluorescence compared with untreated cells or cells treated with polylysine alone” value in assay [3] (transloading: 160 μg FITC-labelled peptide with TfpL/pL/DNA complex, 3 hours 37° C., M-3 cells) is recorded as ~2 powers of ten.
Turning to “LPEAIEGFG [Leu Pro Glu Ala Ile Glu Gly Phe Gly, control peptide, anchor amino acids at positions 2 and 9 replaced by proline and glycine, reference compound]”, the animals developed tumours in assay [4] is 7 out of 8.
